Assay results from ChEMBL document CHEMBL4190197, “Nepetaefolins A-J, Cytotoxic Chinane and Abietane Diterpenoids from Caryopteris nepetaefolia” (J Nat Prod, 2017).
pIC50: −log10 of the molar value.

Experiments:
Type in all cases: functional
Details in all cases: Homo sapiens, 144 h
[1] = Antiproliferative activity against non-small cell lung cancer patient-derived LUPF045 cells after 6 days by ATP-TCA method
[2] = Antiproliferative activity against ovarian cancer patient-derived OVPF038 cells after 6 days by ATP-TCA method
[3] = Antiproliferative activity against ovarian cancer patient-derived OVPF008 cells after 6 days by ATP-TCA method
[4] = Antiproliferative activity against non-small cell lung cancer patient-derived LUPF003 cells after 6 days by ATP-TCA method

## CC(C)[C@]12C=C3CC[C@@H]4[C@](C)(CCC[C@]4(C)C(=O)O)[C@]3(CC1)OO2
[1]
  pIC50: < 4.30

## CC(=O)OC[C@@]1(C)[C@@H](O)CC[C@]2(C)c3ccc(C(C)C)cc3CC[C@@H]12
[2]
  pIC50: 4.90
[1]
  pIC50: 5.20
[3]
  pIC50: 5.10
[4]
  pIC50: 4.50

## C=C(C)c1ccc2c(c1)CC[C@H]1C3=C(CC[C@]21C)C(=O)OC3
[2]
  pIC50: 4.71
[1]
  pIC50: 5.05
[3]
  pIC50: 4.77
[4]
  pIC50: 4.93

## CC(C)[C@]12C=C3CC[C@H]4[C@@](C)(CO)[C@@H](O)CC[C@]4(C)[C@]3(CC1)OO2
[1]
  pIC50: < 4.30

## CC(C)(O)c1cc2c(cc1O)[C@@]1(C)CCC3=C(COC3=O)[C@@H]1CC2
[2]
  pIC50: < 4.30
[3]
  pIC50: < 4.30
[4]
  pIC50: 4.35

## CC(C)[C@@]12C=C3CC[C@H]4[C@@](C)(CO)[C@@H](O)CC[C@]4(C)[C@]3(CC1)OO2
[2]
  pIC50: < 4.30
[1]
  pIC50: 4.30
[3]
  pIC50: < 4.30

## C=C(C)c1cc2c(cc1O)[C@@]1(C)CCC3=C(COC3=O)[C@@H]1CC2
[2]
  pIC50: < 4.30
[1]
  pIC50: 4.30
[4]
  pIC50: 4.36

## CC(=O)O[C@H]1C(=O)[C@@]2(C)[C@H]([C@H](OC(=O)c3ccccc3)[C@]3(O)C[C@H](OC(=O)[C@H](O)[C@@H](NC(=O)c4ccccc4)c4ccccc4)C(C)=C1C3(C)C)[C@]1(OC(C)=O)CO[C@@H]1C[C@@H]2O [PACLITAXEL]
[2]
  pIC50: 5.85
[1]
  pIC50: 4.95
[3]
  pIC50: 5.96
[4]
  pIC50: 4.96
